Experimental data taken from patent US8227207B2, “Bioactive peptides derived from the proteins of egg white by means of enzymatic hydrolysis” (Consejo Superior de Investigaciones Cientifcas, priority 2004, dated 2012).
Entries after “also recorded” stand apart in the source; their conditions may differ. Residues, ends and D or L forms follow the SMILES beside them.

Experiments:
[1] = test system: angiotensin converting enzyme (ACE) (EC 3.4.15.1, Sigma); assay: In vitro inhibitory activity of the angiotensin converting enzyme (ACEI activity); assay type: biochemical; settings: result in words
Description: Measurement of the Inhibitory Activity of the Angiotensin Converting Enzyme (ACEI Activity)
The inhibitory activity of the angiotensin converting enzyme (ACE) is measured in vitro according to the method of D. W. Cushman and H. S. Cheung (Spectrophotometric assay and properties of the angiotensin-converting enzyme of rabbit lung. Biochemical Pharmacology, 1971, 20: 1637-1648), later on modified by Y. K. Kim, S. Yoon, D. Y. Yu, B. Lönnerdal and B. H. Cheung (Novel angiotensin-I-converting enzyme inhibitory peptides derived from recombinant human αs1-casein expressed in Escherichia coli, Journal of Dairy Research 1999, 66, 431-439).
The substrate hippuryl histidyl leucine (HHL, Sigma Chemicals Co., St. Louis, Mo., USA) is dissolved in a 0.1 M borate buffer with 0.3 M NaCl pH 8.3 to obtain a final concentration of 5 mM. To 100 μl of substrate are added 40 μl of each of the samples whose ACEI activity it is wished to determine. The ACE enzyme (EC 3.4.15.1, Sigma) is added, dissolved in 50% glycerol and diluted 1/10 in bidistilled water at the moment of conducting the assay. The reaction is carried out at 37° C. for 30 minutes in a water-bath. The enzyme is deactivated by lowering the pH with 150 μl of 1 N HCl. The hippuric acid formed is extracted with 1000 μl of ethyl acetate. Following vortex stirring for 20 seconds, it is centrifuged at 4000 rpm for 10 minutes at room temperature. 750 μl of the organic phase are taken and evaporated by heating at 95° C. for 10 minutes. The hippuric acid residue is redissolved in 800 μl of bidistilled water and, following stirring for 20 seconds, the absorbency at 228 nm is measured in a Dur-70 spectrophotometer from Beckman Instruments, Inc., Fullerton, USA.
In order to calculate the percentage of ACEI activity, the following formula is used
The blank is used for correcting the background absorbency. This contains substrate, enzyme and 20 μl of bidistilled water in place of the sample, and the reaction is halted at zero time. The control implies a hundred percent of the enzymatic action on the substrate in the absence of inhibitors and contains 20 μl of water in place of the sample and is incubated the same time as the sample.
The results are presented as the IC50 (μM or μg/ml) or concentration at which 50% of the enzyme's activity is inhibited. The concentration of protein is determined by means of the bicinchonomic acid (BCA) assay (Pierce, Rockford, Ill., USA) using bovine seroalbumin as reference.

[2] = test system: spontaneously hypertensive rats (SHR); assay: Anti-hypertensive activity, systolic arterial pressure (SAP), in spontaneously hypertensive rats; assay type: in vivo, rat; settings: oral, intragastric probe, Captopril 50 mg/kg, SEQ. ID. No 6 and 3 0.5-2 mg/kg, SEQ. ID. No 2 1-4 mg/kg
Description: (§1) The effect is studied of various identified peptides and of some products containing them (for example egg white hydrolysed with pepsin for 3 hours and the fraction of it less than 3000 Da) on the arterial pressure of spontaneously hypertensive rats (SHR) and Wistar-Kyoto rats (WKY) which are the normotense controls for the SHR. This study is conducted with SHR (10) and WKY of 17-24 weeks old and weight between 300 and 350 g, coming from Charles River Laboratories […]. The rats are kept in cages of five by five and maintained at a stable temperature of 25° C. with light-dark cycles of 12 hours, ingesting freely available water and food. In order to carry out the measurement of systolic arterial pressure (SAP) “tail cuff” equipment is used (Le5001, Letica) which automatically provides a digital value of the SAP and records and facilitates the cardiac frequency of the animals. Various measurements are made and the average of all of them is obtained in order to achieve a reliable value of the SAP. Before positioning the cuff and transducer in the tail of the rats, the rats are exposed to a temperature of close to 30° C. in order to facilitate dilation of the caudal artery. Also, in order to ensure the reliability of the measurement, the animals are made to get used to the procedure for two weeks prior to conducting each assay in question. The administration of the products to be assayed is done by means of an intragastric probe in a time margin of between 9 and 10 o'clock in the morning. The SHR used for the study had SAP values of between 230 and 280 mm Hg. The WKY used for the study at that moment had SAP values of between 160 and 200 mm Hg. Measurements of the SAP were taken from the animals periodically, every 2 hours, up to 8 hours post-administration of the products to be assayed; in addition, a SAP measurement was taken 24 hours after the administration of those products. As negative control (in order to establish the circadian variation of the SAP in probed rats) the measurements of the SAP obtained in rats which had been administered 1 ml of water by means of intragastric probe were used. […] This dose of Captopril was administered to each rat in a volume of 1 ml. In order to establish the effect of the unhydrolysed egg white on the arterial pressure of the animals, similar assays to those described above were conducted, in which the animals were treated by the same procedure with 200 mg/kg of previously freeze-dried egg white (reference). The results obtained are grouped and the mean±the standard error of measurement (SEM) is obtained for a minimum of 9 homogenous assays. The data of the treated animals are always compared with the data deemed to be a negative control. […]

[3] = test system: Wistar-Kyoto rats (WKY); assay: Effect on systolic arterial pressure (SAP) in normotense Wistar-Kyoto rats; assay type: in vivo, rat; settings: intragastric probe, highest dose used: SEQ. ID. No 6 and 3 2 mg/kg, SEQ. ID. No 2 4 mg/kg, Captopril 50 mg/kg
Description: as §1

[4] = test system: spontaneously hypertensive rats (SHR); settings: ovokinin oral 100 mg/kg, ovokinin (2-7) 10 mg/kg; cited from earlier work
[5] = test system: spontaneously hypertensive rats (SHR); settings: literature, cited from earlier work; for anti-hypertensive activity relative to ovokinin (2-7): following administration to SHRs
[6] = test system: angiotensin converting enzyme (ACE); settings: result in words, literature; cited from earlier work
[7] = test system: spontaneously hypertensive rats (SHR); assay: Antihypertensive activity: systolic arterial pressure (tail cuff) in spontaneously hypertensive rats; assay type: in vivo, rat
Description: (§2) The effect is studied of various identified peptides and of some products containing them (for example egg white hydrolysed with pepsin for 3 hours and the fraction of it less than 3000 Da) on the arterial pressure of spontaneously hypertensive rats (SHR) and Wistar-Kyoto rats (WKY) which are the normotense controls for the SHR.
(§3) This study is conducted with SHR (10) and WKY of 17-24 weeks old and weight between 300 and 350 g, coming from Charles River Laboratories España, S. A. The rats are kept in cages of five by five and maintained at a stable temperature of 25° C. with light-dark cycles of 12 hours, ingesting freely available water and food. In order to carry out the measurement of systolic arterial pressure (SAP) “tail cuff” equipment is used (Le5001, Letica) which automatically provides a digital value of the SAP and records and facilitates the cardiac frequency of the animals. Various measurements are made and the average of all of them is obtained in order to achieve a reliable value of the SAP. Before positioning the cuff and transducer in the tail of the rats, the rats are exposed to a temperature of close to 30° C. in order to facilitate dilation of the caudal artery. Also, in order to ensure the reliability of the measurement, the animals are made to get used to the procedure for two weeks prior to conducting each assay in question.
(§4) The administration of the products to be assayed is done by means of an intragastric probe in a time margin of between 9 and 10 o'clock in the morning. The SHR used for the study had SAP values of between 230 and 280 mm Hg. The WKY used for the study at that moment had SAP values of between 160 and 200 mm Hg. Measurements of the SAP were taken from the animals periodically, every 2 hours, up to 8 hours post-administration of the products to be assayed; in addition, a SAP measurement was taken 24 hours after the administration of those products. As negative control (in order to establish the circadian variation of the SAP in probed rats) the measurements of the SAP obtained in rats which had been administered 1 ml of water by means of intragastric probe were used. As positive control, the measurements of the SAP obtained in rats which had been administered 50 mg/kg of Captopril (prototype ACEI drug) by means of intragastric probe were used. This dose of Captopril was administered to each rat in a volume of 1 ml. In order to establish the effect of the unhydrolysed egg white on the arterial pressure of the animals, similar assays to those described above were conducted, in which the animals were treated by the same procedure with 200 mg/kg of previously freeze-dried egg white (reference).
The results obtained are grouped and the mean±the standard error of measurement (SEM) is obtained for a minimum of 9 homogenous assays. The data of the treated animals are always compared with the data deemed to be a negative control. In order to compare them and obtain the statistical significance, Student's t-test for unpaired data is used and the difference for values of p<0.05 is considered significant.

[8] = test system: Wistar-Kyoto rats (WKY); assay: Systolic arterial pressure (tail cuff) in normotense Wistar-Kyoto rats; assay type: in vivo, rat; settings: highest dose used, intragastric probe
Description: as §2, §3, §4
The results obtained are grouped and the mean±the standard error of measurement (SEM) is obtained for a minimum of 9 homogenous assays. […]

| Compound | ACEI activity in vitro [1] | anti-hypertensive activity / drop in SAP [2] | effect on SAP [3] | ACEI activity [6] | further results |
| --- | --- | --- | --- | --- | --- |
| CC[C@H](C)[C@H](NC(=O)[C@@H]1CCCN1C(=O)[C@H](Cc1ccc(O)cc1)NC(=O)[C@H](CCCNC(=N)N)NC(=O)[C@H](CCC(=O)O)NC(=O)[C@H](CCC(=O)O)NC(=O)[C@H](C)NC(=O)[C@@H](N)Cc1ccc(O)cc1)C(=O)N[C@@H](CC(C)C)C(=O)O [SEQ. ID. No 6] (H-YAEERYPIL-OH) | potent ACEI activity in vitro | possess anti-hypertensive activity in spontaneously hypertensive rats (SHR); also recorded: display anti-hypertensive activity in rats | none of these compounds modifies the SAP of WKY rats |  |  |
| CC(C)C[C@H](N)C(=O)N[C@@H](Cc1c[nH]c2ccccc12)C(=O)O [LW] |  |  |  |  | anti-hypertensive / vasodilatory activity in SHR (in words) [4]: displayed anti-hypertensive activity; anti-hypertensive activity ([5]; SHR, ovokinin orally 100 mg/kg): displayed anti-hypertensive activity in spontaneously hypertensive rats (SHR) |
| CC(C)C[C@H](NC(=O)[C@@H]1CCCN1C(=O)[C@@H](N)CCCNC(=N)N)C(=O)N[C@@H](CCCCN)C(=O)N1CCC[C@H]1C(=O)N[C@@H](Cc1c[nH]c2ccccc12)C(=O)O [RPLKPW] (H-RPLKPW-OH) |  |  |  | neither ovokinin (2-7), nor its RPFHPF (SEQ. ID. NO: 10) or RPLKPW (SEQ. ID. NO: 11) derivatives possessed ACEI activity | minimum effective dose ([5]; SHR): 0.1 mg/kg; anti-hypertensive activity relative to ovokinin (2-7) [5]: 100 times |
| CC[C@H](C)[C@H](N)C(=O)N[C@H](C(=O)N[C@@H](Cc1ccccc1)C(=O)O)C(C)C [SEQ. ID. No 2, IVF] | potent ACEI activity in vitro | possess anti-hypertensive activity in spontaneously hypertensive rats (SHR); also recorded: display anti-hypertensive activity in rats | none of these compounds modifies the SAP of WKY rats |  |  |
| C[C@H](CS)C(=O)N1CCC[C@H]1C(=O)O [Captopril, reference compound] |  | pronounced drop in SAP in the SHR | none of these compounds modifies the SAP of WKY rats |  | time of maximum drop in SAP after administration ([7]; intragastric probe): 6 h; drop in systolic arterial pressure (SAP) / anti-hypertensive activity (in words) ([7]; single administration by intragastric probe): pronounced drop in SAP; change in SAP in normotense rats (in words) [8]: none of these compounds modifies the SAP |
| N=C(N)NCCC[C@H](N)C(=O)N1CCC[C@H]1C(=O)N[C@@H](Cc1ccccc1)C(=O)N[C@@H](Cc1cnc[nH]1)C(=O)N1CCC[C@H]1C(=O)N[C@@H](Cc1ccccc1)C(=O)O [RPFHPF] (H-RPFHPF-OH) |  |  |  | neither ovokinin (2-7), nor its RPFHPF (SEQ. ID. NO: 10) or RPLKPW (SEQ. ID. NO: 11) derivatives possessed ACEI activity | minimum effective dose ([5]; SHR): 1 mg/kg; anti-hypertensive activity relative to ovokinin (2-7) [5]: 10 times |
| C[C@H](NC(=O)[C@@H](N)CCCNC(=N)N)C(=O)N[C@@H](CC(=O)O)C(=O)N[C@@H](Cc1cnc[nH]1)C(=O)N1CCC[C@H]1C(=O)N[C@@H](Cc1ccccc1)C(=O)O [ovokinin (2-7), RADHPF] (H-RADHPF-OH) |  |  |  | neither ovokinin (2-7), nor its RPFHPF (SEQ. ID. NO: 10) or RPLKPW (SEQ. ID. NO: 11) derivatives possessed ACEI activity | anti-hypertensive / vasodilatory activity in SHR (in words) [4]: exerted a potent vasodilatory action; vasodilatory action ([5]; SHR, doses of 10 mg/kg): potent vasodilatory action in SHR |
| CC(C)C[C@H](NC(=O)[C@H](Cc1ccccc1)NC(=O)[C@@H]1CCCN1C(=O)[C@H](Cc1cnc[nH]1)NC(=O)[C@H](CC(=O)O)NC(=O)[C@H](C)NC(=O)[C@@H](N)CCCNC(=N)N)C(=O)O [SEQ. ID. No 3, RADHPFL] (H-RADHPFL-OH) | potent ACEI activity in vitro | possess anti-hypertensive activity in spontaneously hypertensive rats (SHR); also recorded: display anti-hypertensive activity in rats | none of these compounds modifies the SAP of WKY rats |  |  |
